Source: US10202360B2 (CELGENE QUANTICEL RESEARCH, INC., priority 2016, dated 2019)

molecular target: CREBBP (Homo sapiens (Human), UniProt Q92793); test: In vitro enzyme inhibition assay - CREBBP inhibition (AlphaScreen, biotinylated H4-tetraacetyl peptide); assay type: binding; settings: Table 28; AlphaScreen, H4-tetraacetyl peptide
Summary of the method: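 His-tagged CREBBP expressed in E. coli (50 nM final) incubated with biotinylated H4K5/8/12/16(Ac) peptide (20 nM final) in HEPES pH 7.3 buffer, 0.4% DMSO, 20 min at room temperature.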

Chain of CREBBP (Q92793 1081-1197): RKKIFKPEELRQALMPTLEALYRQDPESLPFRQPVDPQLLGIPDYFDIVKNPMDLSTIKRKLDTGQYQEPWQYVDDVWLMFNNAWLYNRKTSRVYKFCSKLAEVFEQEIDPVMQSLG

| SMILES | IC50 [nM] |
| --- | --- |
| Cc1ccc(F)c(Oc2nc(NS(=O)(=O)C(C)C)cc(-c3ccc(=O)n(C)c3)n2)c1Cl [Example 256, Propane-2-sulfonic acid [2-(2-chloro-6-fluoro-3-methyl-phenoxy)-6-(1-methyl-6-oxo-1,6-dihydro-pyridin-3-yl)-pyrimidin-4-yl]-amide] | < 500 |
| CCCCS(=O)(=O)Nc1cc(-c2ccc(=O)n(C)c2)nc(Oc2c(F)ccc(C)c2F)n1 [Example 257, Butane-1-sulfonic acid [2-(2,6-difluoro-3-methyl-phenoxy)-6-(1-methyl-6-oxo-1,6-dihydro-pyridin-3-yl)-pyrimidin-4-yl]-amide] | < 500 |
| CCCCS(=O)(=O)Nc1cc(-c2ccc(=O)n(C)c2)nc(Oc2c(Cl)ccc(C)c2F)n1 [Example 258, Butane-1-sulfonic acid [2-(6-chloro-2-fluoro-3-methyl-phenoxy)-6-(1-methyl-6-oxo-1,6-dihydro-pyridin-3-yl)-pyrimidin-4-yl]-amide] | < 500 |
| Cc1ccc(Cl)c(Oc2nc(NS(=O)(=O)CCC(C)C)cc(-c3ccc(=O)n(C)c3)n2)c1F [Example 262, 3-Methyl-butane-1-sulfonic acid [2-(6-chloro-2-fluoro-3-methyl-phenoxy)-6-(1-methyl-6-oxo-1,6-dihydro-pyridin-3-yl)-pyrimidin-4-yl]-amide] | < 500 |
| Cn1cc(-c2cc(NS(=O)(=O)CC3CC3)nc(Oc3c(F)cccc3Cl)n2)ccc1=O [Example 263, N-[2-(2-Chloro-6-fluoro-phenoxy)-6-(1-methyl-6-oxo-1,6-dihydro-pyridin-3-yl)-pyrimidin-4-yl]-C-cyclopropyl-methanesulfonamide] | < 500 |
| Cc1ccc(F)c(Oc2nc(NS(=O)(=O)CCC(C)C)cc(-c3ccc(=O)n(C)c3)n2)c1Cl [Example 265, 3-Methyl-butane-1-sulfonic acid [2-(2-chloro-6-fluoro-3-methyl-phenoxy)-6-(1-methyl-6-oxo-1,6-dihydro-pyridin-3-yl)-pyrimidin-4-yl]-amide] | < 500 |
| Cc1cccc(Cl)c1Oc1nc(NS(=O)(=O)CCC2CC2)cc(-c2ccc(=O)n(C)c2)n1 [Example 266, 2-Cyclopropyl-ethanesulfonic acid [2-(2-chloro-6-methyl-phenoxy)-6-(1-methyl-6-oxo-1,6-dihydro-pyridin-3-yl)-pyrimidin-4-yl]-amide] | < 500 |
| Cc1cc(-c2cc(NCc3ccccc3)nc(Oc3ccc(F)cc3F)n2)cn(C)c1=O [Example 272, 5-(6-(benzylamino)-2-(2,4-difluorophenoxy)pyrimidin-4-yl)-1,3-dimethylpyridin-2(1H)-one] | < 500 |
| Cn1cc(-c2cc(NCc3ccccc3)nc(Oc3ccc(F)cc3F)n2)ccc1=O [Example 274, 5-(6-(benzylamino)-2-(2,4-difluorophenoxy)pyrimidin-4-yl)-1-methylpyridin-2(1H)-one] | < 500 |
| CN(Cc1ccccc1)c1cc(-c2ccc(=O)n(C)c2)nc(Oc2ccc(F)cc2F)n1 [Example 275, 5-(6-(benzyl(methyl)amino)-2-(2,4-difluorophenoxy)pyrimidin-4-yl)-1-methylpyridin-2(1H)-one] | < 500 |
| Cn1cc(-c2cc(Nc3ccccc3)nc(Oc3ccc(F)cc3F)n2)ccc1=O [Example 276, 5-(2-(2,4-difluorophenoxy)-6-(phenylamino)pyrimidin-4-yl)-1-methylpyridin-2(1H)-one] | < 500 |
| CCN(CC)c1cc(-c2ccc(=O)n(C)c2)nc(Oc2ccc(F)cc2F)n1 [Example 277, 5-(6-(diethylamino)-2-(2,4-difluorophenoxy)pyrimidin-4-yl)-1-methylpyridin-2(1H)-one] | < 500 |
| CCc1ccc(C(C)Nc2cc(-c3ccc(=O)n(C)c3)nc(Oc3c(C)cccc3F)n2)cc1 (stereo not shown) [Example 279, 5-(6-((1-(4-ethylphenyl)ethyl)amino)-2-(2-fluoro-6-methylphenoxy)pyrimidin-4-yl)-1-methylpyridin-2(1H)-one] | < 500 |
| Cc1cccc(F)c1Oc1nc(NC(C)C)cc(-c2ccc(=O)n(C)c2)n1 [Example 281, 5-(2-(2-fluoro-6-methylphenoxy)-6-(isopropylamino)pyrimidin-4-yl)-1-methylpyridin-2(1H)-one] | < 500 |
| Cc1cccc(Cl)c1Oc1nc(NC(C)C)cc(-c2ccc(=O)n(C)c2)n1 [Example 283, 5-(2-(2-chloro-6-methylphenoxy)-6-(isopropylamino)pyrimidin-4-yl)-1-methylpyridin-2(1H)-one] | < 500 |
| Cc1cccc(Cl)c1Oc1nc(NC2CCCC2)cc(-c2ccc(=O)n(C)c2)n1 [Example 284, 5-(2-(2-chloro-6-methylphenoxy)-6-(cyclopentylamino)pyrimidin-4-yl)-1-methylpyridin-2(1H)-one] | < 500 |
| Cc1cccc(F)c1Oc1nc(NC2CCCC2)cc(-c2ccc(=O)n(C)c2)n1 [Example 285, 5-(6-(cyclopentylamino)-2-(2-fluoro-6-methylphenoxy)pyrimidin-4-yl)-1-methylpyridin-2(1H)-one] | < 500 |
| Cc1cccc(F)c1Oc1nc(NCC2CCCc3ccccc32)cc(-c2ccc(=O)n(C)c2)n1 (stereo not shown) [Example 286, 5-(2-(2-fluoro-6-methylphenoxy)-6-(((1,2,3,4-tetrahydronaphthalen-1-yl)methyl)amino)pyrimidin-4-yl)-1-methylpyridin-2(1H)-one] | < 500 |
| Cc1cccc(C(C)Nc2cc(-c3ccc(=O)n(C)c3)nc(Oc3c(C)cccc3F)n2)n1 (stereo not shown) [Example 288, 5-(2-(2-fluoro-6-methylphenoxy)-6-((1-(6-methylpyridin-2-yl)ethyl)amino)pyrimidin-4-yl)-1-methylpyridin-2(1H)-one] | < 500 |
| Cc1cccc(CNc2cc(-c3ccc(=O)n(C)c3)nc(Oc3c(C)cccc3F)n2)n1 [Example 289, 5-(2-(2-fluoro-6-methylphenoxy)-6-(((6-methylpyridin-2-yl)methyl)amino)pyrimidin-4-yl)-1-methylpyridin-2(1H)-one] | < 500 |
| Cc1cccc(F)c1Oc1nc(NCc2ccccc2)cc(-c2ccc(=O)n(C)c2)n1 [Example 292, 5-[6-Benzylamino-2-(2-fluoro-6-methyl-phenoxy)-pyrimidin-4-yl]-1-methyl-1H-pyridin-2-one] | < 500 |

Further lines, results first:

| IC50 [nM] | SMILES |
| --- | --- |
| < 500 | CCC(CC)S(=O)(=O)Nc1cc(-c2ccc(=O)n(C)c2)nc(Oc2c(C)cccc2Cl)n1 [Example 259, Pentane-3-sulfonic acid [2-(2-chloro-6-methyl-phenoxy)-6-(1-methyl-6-oxo-1,6-dihydro-pyridin-3-yl)-pyrimidin-4-yl]-amide] |
| < 500 | Cc1ccc(F)c(Oc2nc(NS(=O)(=O)C(C)C)cc(-c3ccc(=O)n(C)c3)n2)c1F [Example 260, Propane-2-sulfonic acid [2-(2,6-difluoro-3-methyl-phenoxy)-6-(1-methyl-6-oxo-1,6-dihydro-pyridin-3-yl)-pyrimidin-4-yl]-amide] |
| < 500 | Cc1ccc(Cl)c(Oc2nc(NS(=O)(=O)C(C)C)cc(-c3ccc(=O)n(C)c3)n2)c1F [Example 261, Propane-2-sulfonic acid [2-(6-chloro-2-fluoro-3-methyl-phenoxy)-6-(1-methyl-6-oxo-1,6-dihydro-pyridin-3-yl)-pyrimidin-4-yl]-amide] |
| < 500 | Cc1cccc(Cl)c1Oc1nc(NS(=O)(=O)CC2CC2)cc(-c2ccc(=O)n(C)c2)n1 [Example 264, N-[2-(2-Chloro-6-methyl-phenoxy)-6-(1-methyl-6-moxo-1,6-dihydro-pyridin-3-yl)-pyrimidin-4-yl]-C-cyclopropyl-methanesulfonamide] |
| < 500 | Cn1cc(-c2cc(NS(=O)(=O)CCC3CC3)nc(Oc3c(F)cccc3Cl)n2)ccc1=O [Example 268, 2-Cyclopropyl-ethanesulfonic acid [2-(2-chloro-6-fluoro-phenoxy)-6-(1-methyl-6-oxo-1,6-dihydro-pyridin-3-yl)-pyrimidin-4-yl]-amide] |
| < 500 | Cc1cc(-c2cc(N)nc(Oc3ccc(F)cc3F)n2)cn(C)c1=O [Example 270, 5-(6-amino-2-(2,4-difluorophenoxy)pyrimidin-4-yl)-1,3-dimethy-lpyridin-2(1H)-one] |
| < 500 | Cc1cc(-c2cc(NCCc3ccccc3)nc(Oc3ccc(F)cc3F)n2)cn(C)c1=O [Example 271, 5-(2-(2,4-difluorophenoxy)-6-(phenethylamino)pyrimidin-4-yl)-1,3-dimethylpyridin-2(1H)-one] |
| < 500 | CCOc1ccc(C(C)Nc2cc(-c3ccc(=O)n(C)c3)nc(Oc3c(C)cccc3F)n2)cc1 (stereo not shown) [Example 278, 5-(6-((1-(4-ethoxyphenyl)ethyl)amino)-2-(2-fluoro-6-methylphenoxy)pyrimidin-4-yl)-1-methylpyridin-2(1H)-one] |
| < 500 | Cc1cccc(F)c1Oc1nc(NC2CCCc3ccccc32)cc(-c2ccc(=O)n(C)c2)n1 (stereo not shown) [Example 280, 5-(2-(2-fluoro-6-methylphenoxy)-6-((1,2,3,4-tetrahydronaphthalen-1-yl)amino)pyrimidin-4-yl)-1-methylpyridin-2(1H)-one] |
| < 500 | Cc1cccc(Cl)c1Oc1nc(NC(C)c2ccccc2)cc(-c2ccc(=O)n(C)c2)n1 (stereo not shown) [Example 282, 5-(2-(2-chloro-6-methylphenoxy)-6-((1-phenylethyl)amino)pyrimidin-4-yl)-1-methylpyridin-2(1H)-one] |
| < 500 | Cc1cccc(F)c1Oc1nc(N[C@H]2CCc3ccccc32)cc(-c2ccc(=O)n(C)c2)n1 [Example 287, (S)-5-(6-((2,3-dihydro-1H-inden-1-yl)amino)-2-(2-fluoro-6-methylphenoxy)pyrimidin-4-yl)-1-methylpyridin-2(1H)-one] |
| < 500 | Cc1ccc(CNc2cc(-c3ccc(=O)n(C)c3)nc(Oc3c(C)cccc3F)n2)cn1 [Example 290, 5-(2-(2-fluoro-6-methylphenoxy)-6-(((6-methylpyridin-3-yl)methyl)amino)pyrimidin-4-yl)-1-methylpyridin-2(1H)-one] |
| < 500 | CCNc1cc(-c2ccc(=O)n(C)c2)nc(Oc2c(C)cccc2F)n1 [Example 291, 5-[6-Ethylamino-2-(2-fluoro-6-methyl-phenoxy)-pyrimidin-4-yl]-1-methyl-1H-pyridin-2-one] |
